According to patent US20240252693A1, “FOLATE RECEPTOR-TARGETED RADIOTHERAPEUTIC AGENTS AND THEIR USE” (Novartis AG, priority 2021, published 2024):
Values joined by “and” are separate entries in the source; they are usually repeats but may differ in a detail not shown here. Equal values may be shown once. *1 amine or outer side, *2 acyl side, *3 side chain or, on linkers, in order; H or OH if unused. Where a SMILES comes first, the peptide text is derived from it. [ ]: non-standard residue; d: D form. The star is where a group is joined. NH(1-deoxy-D-glucityl) = OC[C@@H](O)[C@@H](O)[C@H](O)[C@@H](O)CN*; DOTA = O=C(O)CN1CCN(CC(=O)O)CCN(CC(=O)*)CCN(CC(=O)O)CC1; Pteroyl = Nc1nc2ncc(CNc3ccc(C(=O)*)cc3)nc2c(=O)[nH]1; γGlu = O=C(O)[C@H](CCC(=O)[*:2])N[*:1]; βAsp = O=C(O)[C@H](CC(=O)[*:2])N[*:1]; Dap = NC[C@H](N)C(=O)O

Assays:
KB tumor = assay: In vivo biodistribution in mice bearing KB tumors; conditions: 225Ac chelate, 30 nmol/kg
FR-positive M109 tumor = assay: In vivo biodistribution in mice bearing M109 tumors
Description: Four- to eight-week-old female nu/nu mice or NSG mice (Harlan Sprague-Dawley, Inc.) were maintained on a standard 12-h light-dark cycle and fed ad libitum with Folate deficient purified rodent diet (TestDiet #AIN-93G) for the duration of the experiment. FR-positive M109 or FR-negative HT29 tumor cells were inoculated in the subcutis dorsal medial area of mice. The biodistribution studies were typically performed when tumors were approximately 400-800 mm^3 in volume. Mice were divided into groups of three, and freshly prepared test articles and competitors were injected through the lateral tail vein in a volume of 100 μL/10 g of PBS. Four h to six days post radioactive-agent dose administration, mice were euthanized and organs (blood, heart, lungs, liver, spleen, and kidneys, intestine, stomach, muscle, brain and tumor) were collected, weighed and placed inside counting vials. Each tissue sample was counted for the activities of radioelement using a gamma-counter. Samples of the injectate were used as decay correction standards. Final bar graphs are expressed as % injected dose per gram of tissue or tumor to kidney ratio, or % tumor to (kidneys+liver+spleen) ratio.

| SMILES | T/Kid (KB tumor) | T/Liv (KB tumor) | T/spl (KB tumor) | T/Kid (FR-positive M109 tumor; 177Lu chelate, 100 nmol/kg) | T/spl (FR-positive M109 tumor; 177Lu chelate, 100 nmol/kg) | T^2/kid (FR-positive M109 tumor; 177Lu chelate, 100 nmol/kg) | T/Kid (FR-positive M109 tumor; 111In chelate, 100 nmol/kg) | T/Liv (FR-positive M109 tumor; 111In chelate, 100 nmol/kg) | T/spl (FR-positive M109 tumor; 111In chelate, 100 nmol/kg) | T^2/kid (FR-positive M109 tumor; 111In chelate, 100 nmol/kg) | also measured |
| --- | --- | --- | --- | --- | --- | --- | --- | --- | --- | --- | --- |
| Nc1nc2ncc(CNc3ccc(C(=O)N[C@@H](CNC(=O)CN4CCN(CC(=O)O)CCN(CC(=O)O)CCN(CC(=O)O)CC4)C(=O)O)cc3)nc2c(=O)[nH]1 [Compound 3] | 0.04 +/− 0.01 | 0.5 +/− 0.3 | 6.8 +/− 2.9 | 0.30 +/− 0.04 | 10.6 +/− 1.8 | 1.6 +/− 0.4 | – | – | – | – | T/Liv (FR-positive M109 tumor; 177Lu chelate, 100 nmol/kg): 0.93 +/− 0.15 |
| Nc1nc2ncc(CNc3ccc(C(=O)N[C@@H](CNC(=O)CCC(C(=O)O)N4CCN(CC(=O)O)CCN(CC(=O)O)CCN(CC(=O)O)CC4)C(=O)O)cc3)nc2c(=O)[nH]1 (stereo partly shown) [Compound 5] | 0.09 +/− 0.02 | 3.5 +/− 1.9 | 19.9 +/− 10.9 | 0.22 +/− 0.08 and 0.16 +/− 0.01 and 0.25 +/− 0.07 | 25.3 +/− 11.4 and 14.6 +/− 3.0 and 24.4 +/− 8.8 | 1.6 +/− 1.0 and 1.1 +/− 0.3 and 2.0 +/− 1.2 | – | – | – | – | – |
| Nc1nc2ncc(CNc3ccc(C(=O)N[C@@H](CC(=O)N[C@@H](CCC(=O)NC[C@H](O)[C@@H](O)[C@H](O)[C@H](O)CO)C(=O)N[C@@H](CCC(=O)NC[C@H](O)[C@@H](O)[C@H](O)[C@H](O)CO)C(=O)N[C@@H](CCC(=O)NC[C@H](O)[C@@H](O)[C@H](O)[C@H](O)CO)C(=O)N[C@@H](CNC(=O)CN4CCN(CC(=O)O)CCN(CC(=O)O)CCN(CC(=O)O)CC4)C(=O)O)C(=O)O)cc3)nc2c(=O)[nH]1 [Compound 11] ({Pteroyl-βAsp}-E(NH(1-deoxy-D-glucityl))E(NH(1-deoxy-D-glucityl))E(NH(1-deoxy-D-glucityl))[Dap](DOTA)-OH) | – | – | – | – | – | – | 0.19 +/− 0.01 | 5.7 +/− 1.5 | 28.0 +/− 31^ | 1.0 +/− 0.14 | – |
| Nc1nc2ncc(CNc3ccc(C(=O)N[C@@H](CCC(=O)N[C@@H](CCC(=O)NC[C@H](O)[C@@H](O)[C@H](O)[C@H](O)CO)C(=O)N[C@@H](CCC(=O)NC[C@H](O)[C@@H](O)[C@H](O)[C@H](O)CO)C(=O)N[C@@H](CCC(=O)NC[C@H](O)[C@@H](O)[C@H](O)[C@H](O)CO)C(=O)N[C@@H](CNC(=O)CN4CCN(CC(=O)O)CCN(CC(=O)O)CCN(CC(=O)O)CC4)C(=O)O)C(=O)O)cc3)nc2c(=O)[nH]1 [Compound 13] ({Pteroyl-γGlu}-E(NH(1-deoxy-D-glucityl))E(NH(1-deoxy-D-glucityl))E(NH(1-deoxy-D-glucityl))[Dap](DOTA)-OH) | – | – | – | – | – | – | 0.22 +/− 0.06 | 6.4 +/− 1.5 | 31.9 +/− 7.6 | 1.7 +/− 1.1 | – |
| Nc1nc2ncc(CNc3ccc(C(=O)N[C@@H](CNC(=O)C[C@H](NC(=O)CN4CCN(CC(=O)O)CCN(CC(=O)O)CCN(CC(=O)O)CC4)C(=O)O)C(=O)O)cc3)nc2c(=O)[nH]1 [Compound 20] | – | – | – | 0.21 +/− 0.01 | 16.4 +/− 1.9 | 1.5 +/− 0.3 | – | – | – | – | T/Liv (FR-positive M109 tumor; 177Lu chelate, 100 nmol/kg): 4.6 +/− 2.1 |
| Nc1nc2ncc(CNc3ccc(C(=O)N[C@@H](CCCCNC(=O)COc4ccc(C[C@H](NC(=O)CN5CCN(CC(=O)O)CCN(CC(=O)O)CCN(CC(=O)O)CC5)C(=O)O)cc4)C(=O)O)cc3)nc2c(=O)[nH]1 [Compound 38, Pte-Lys(DOTA-Tyr(O-carbonylmethyl)-OH)—OH] | – | – | – | – | – | – | – | – | – | – | T/Kid (FR-positive M109 tumor; 177Lu chelate, 300 nmol/kg): 0.46 +/− 0.03; T/Liv (FR-positive M109 tumor; 177Lu chelate, 300 nmol/kg): 10.5 +/− 2.9; T/spl (FR-positive M109 tumor; 177Lu chelate, 300 nmol/kg): 69.9 +/− 7.9; T^2/kid (FR-positive M109 tumor; 177Lu chelate, 300 nmol/kg): 1.28 +/− 0.11 |
| Nc1nc2ncc(CNc3ccc(C(=O)N[C@@H](CCCCNC(=O)COc4ccc(C[C@H](NC(=O)COc5ccc(C[C@H](NC(=O)CN6CCN(CC(=O)O)CCN(CC(=O)O)CCN(CC(=O)O)CC6)C(=O)O)cc5)C(=O)O)cc4)C(=O)O)cc3)nc2c(=O)[nH]1 [Compound 39, Pte-Lys(DOTA-(Tyr(O-carbonylmethyl)-OH)2)—OH] | – | – | – | – | – | – | – | – | – | – | T/Kid (FR-positive M109 tumor; 177Lu chelate, 300 nmol/kg): 0.57 +/− 0.22; T/Liv (FR-positive M109 tumor; 177Lu chelate, 300 nmol/kg): 17.1 +/− 6.4; T/spl (FR-positive M109 tumor; 177Lu chelate, 300 nmol/kg): 83.8 +/− 29.7; T^2/kid (FR-positive M109 tumor; 177Lu chelate, 300 nmol/kg): 1.68 +/− 0.59 |

Now from value to compound, other results behind:

| T/Kid (KB tumor) | T/Liv (KB tumor) | T/spl (KB tumor) | T/Kid (FR-positive M109 tumor; 177Lu chelate, 100 nmol/kg) | T/spl (FR-positive M109 tumor; 177Lu chelate, 100 nmol/kg) | T^2/kid (FR-positive M109 tumor; 177Lu chelate, 100 nmol/kg) | T/Kid (FR-positive M109 tumor; 111In chelate, 100 nmol/kg) | T/Liv (FR-positive M109 tumor; 111In chelate, 100 nmol/kg) | T/spl (FR-positive M109 tumor; 111In chelate, 100 nmol/kg) | T^2/kid (FR-positive M109 tumor; 111In chelate, 100 nmol/kg) | SMILES | also measured |
| --- | --- | --- | --- | --- | --- | --- | --- | --- | --- | --- | --- |
| 0.07 +/− 0.03 | 3.3 +/− 1.8 | 15.8 +/− 5.9 | – | – | – | – | – | – | – | Nc1nc2ncc(CNc3ccc(C(=O)N[C@@H](CCC(=O)NC[C@H](N)C(=O)N[C@@H](CC(=O)O)C(=O)N[C@@H](CSC4CC(=O)N(CCNC(=O)CN5CCN(CC(=O)O)CCN(CC(=O)O)CCN(CC(=O)O)CC5)C4=O)C(=O)O)C(=O)O)cc3)nc2c(=O)[nH]1 (stereo partly shown) [Compound 25] | – |
| 0.08 +/− 0.02 | 3.3 +/− 1.1 | 20.4 +/− 5.6 | – | – | – | – | – | – | – | Nc1nc2ncc(CNc3ccc(C(=O)N[C@@H](CCCCNC(=O)[C@H](Cc4ccc5ccccc5c4)NC(=O)[C@H]4CC[C@H](CNC(=O)CCC(C(=O)O)N5CCN(CC(=O)O)CCN(CC(=O)O)CCN(CC(=O)O)CC5)CC4)C(=O)O)cc3)nc2c(=O)[nH]1 (stereo partly shown) [Compound 26] | – |
| – | – | – | – | – | – | 0.098 +/− 0.003 | 1.2 +/− 0.1 | 2.1 +/− 0.3 | 0.03 +/− 0.001 | Nc1nc(O)c2nc(CNc3ccc(C(=O)N[C@@H](CCC(=O)NCCNC(=O)CCC(C(=O)O)N4CCN(CC(=O)O)CCN(CC(=O)O)CCN(CC(=O)O)CC4)C(=O)O)cc3)cnc2n1 (stereo partly shown) [Compound 28] | – |
